{
  "source": "patent US20170306409A1",
  "about": "“CANCER PATIENT SELECTION FOR ADMINISTRATION OF WNT SIGNALING INHIBITORS USING RNF43 MUTATION STATUS” (NOVARTIS AG, priority 2012, published 2017)",
  "assay_type_in_all_cases": "cell-based, human",
  "key": {"[1]": {"test_system": "AXIN2, pancreatic cancer cell lines", "assay": "AXIN2 expression across pancreatic cancer cell line panel", "conditions": "22 of 29 cell lines", "experimental": "(§1) For reverse transcription and quantitative PCR (qPCR), total RNA was extracted from cells or tumors using the RNeasy Plus Mini Kit (Qiagen). 1 μg of RNA were reverse transcribed with Taqman Reverse Transcription Reagents (Applied Biosystems) according to the manufacturer's instruction. Quantitative PCR was performed in 12 μl reactions consisting of 0.6 μl of 20× Taqman probe and PCR primer mix, 6 μl 2× Taqman FAST Advanced Master Mix (Applied Biosystems), and 5.4 μl diluted cDNA template. The thermocycling conditions utilized were 20 seconds at 95° C., followed by 40 cycles of 1 second at 95° C. and 20 seconds at 60° C. All experiments were performed in quadruplicates. Gene expression analysis was performed using the comparative ΔΔCT method and normalized with the housekeeping gene GUSB or 18S. The Taqman probes were purchased from Applied Biosystems."}, "RNF43 mRNA, YAPC cells": {"test_system": "RNF43 mRNA, YAPC cells", "assay": "quantitative RT-PCR gene expression analysis", "conditions": "1 μM of LGK974", "experimental": "FIG. 4(a) is a bar graph showing that the depletion of β-catenin decreases mRNA level of AXIN2 and RNF43. Cells were treated with siRNA, and relative mRNA levels of indicated genes were analyzed by quantitative RT-PCR. […] YAPC cells were treated with 3 μM of IWP2 or 1 μM of LGK974, and subjected to gene expression analysis by quantitative RT-PCR.\nas §1\nConsistent with this observation, treatment of Porcupine inhibitor IWP2 or LGK974 increased the cell surface level of Frizzled and decreased the mRNA levels of AXIN2 and RNF43. See, FIG. 4(b). […]"}, "RNF43 mutant cell lines": {"test_system": "RNF43 mutant cell lines", "assay": "immunoblot and qPCR assays", "experimental": "as §1\n(§2) We next characterized Wnt-dependency in pancreatic cancer cell lines.\n(§3) For immunoblotting, total cell lysates were prepared by lysing cells using RIPA buffer (50 mM Tris-HCl, pH 7.4, 150 mM NaCl, 1% NP-40, 0.5% sodium deoxycholate, 0.1% SDS, 1 mM EDTA) supplemented with protease inhibitors and phosphatase inhibitors, followed by centrifugation at 14,000 rpm for 10 min at 4° C. For cytosolic β-catenin extraction, cell pellets were resuspended in hypotonic buffer (10 mM Tris-HCl, pH 7.5 and 10 mM KCl, supplemented with protease/phosphatase inhibitors) and lysed by three freeze-thaw cycles. Equal amount of proteins were resolved by SDS-PAGE, transferred to nitrocellulose membranes, and incubated with primary antibodies for overnight at 4° C. Secondary antibodies conjugated with either HRP or infrared dyes were used for signal visualization by ECL film or LI-COR Odyssey scanner, respectively."}, "[2]": {"test_system": "RNF43 wild-type cell lines", "assay": "immunoblot and qPCR assays", "experimental": "as §1, §2, §3"}, "HPAFII cells": {"test_system": "HPAFII cells", "assay": "cell colony formation assay (FIG. 1)", "experimental": "(§4) FIG. 1(a) is a photograph showing a HPAFII cell colony formation assay in the presence of LGK974 at two concentrations (300 nM and 1 μM). 1300 cells were seeded into media with indicated treatment and the media were replaced every 5 days until crystal violet staining at day 14. […] FIG. 1(b) is a photograph showing PK1 (having a functional RNF43 protein) and HPAFII (having a nonfunctional RNF43 protein) cell colony formation assays in the presence of 1 μM LGK974 alone or together with daily addition of 10% Wnt3a conditioned media (CM)."}, "PK1": {"test_system": "PK1", "assay": "cell colony formation assay (FIG. 1)", "conditions": "PK1 (RNF43 wild-type); 1 μM LGK974; 10 day assay", "experimental": "as §4"}, "Panc 03.27": {"test_system": "Panc 03.27", "assay": "cell line proliferation assay (Cell Titer Glo)", "experimental": "(§5) The sensitivity of pancreatic cells to LGK974 treatment were tested in a cellular proliferation assay in vitro. Twenty four human pancreatic cancer cell lines were treated with or without LGK974. Cellular proliferation data was generated in 384 well format. Cells were harvested and resuspended in their appropriate growth medium at a density of 1.5×10^4 cells per mL. […] Plates were then transferred to incubators on the ACP-1 system (37° C., 5% CO2) and cells were allowed to attach overnight. […] Following compound addition, plates were returned to the incubator for 120 hours. The assay plates were read with the addition of 10 μL of 1× Cell Titer Glo (Promega G7573) according to the manufacturer's instructions. Plates were then incubated at room temperature for ten minutes and read on the integrated Perkin Elmer Viewlux (2 second exposure, 2× bin, high sensitivity). The raw data was normalized using the DMSO control wells within each plate and the curve fitting for IC50 determination was performed. Cell growth was measured five days later with Cell Titer Glo (Promega). […] As shown in TABLE 4 and Example 4, all four cell lines harbor RNF43 loss-of-function (LOF) mutations"}, "PSN-1": {"test_system": "PSN-1", "assay": "cell line proliferation assay (Cell Titer Glo)", "experimental": "as §5"}, "KP-3": {"test_system": "KP-3", "assay": "cell line proliferation assay (Cell Titer Glo)", "experimental": "as §5"}, "SU8686": {"test_system": "SU8686", "assay": "cell line proliferation assay (Cell Titer Glo)", "experimental": "as §5"}, "TCC-PAN2": {"test_system": "TCC-PAN2", "assay": "pathway inhibition by LGK974 (Table 4)"}},
  "data": [
    {"smiles": "Cc1cc(-c2ncc(CC(=O)Nc3ccc(-c4cnccn4)cn3)cc2C)ccn1", "note": "[LGK974, 2-[5-methyl-6-(2-methylpyridin-4-yl)pyridin-3-yl]-N-[5-(pyrazin-2-yl)pyridin-2-yl]acetamide]", "values": [
      {"measurement": "share of pancreatic cancer cell lines with decreased expression of AXIN2", "setting": "[1]", "result": 76, "unit": "%"},
      {"measurement": "mRNA level of RNF43", "setting": "RNF43 mRNA, YAPC cells", "result": "decreased"},
      {"measurement": "cytosolic β-catenin", "setting": "RNF43 mutant cell lines; RNF43 mutant cell lines", "result": "decreased"},
      {"measurement": "expression of MYC", "setting": "RNF43 mutant cell lines; RNF43 mutant cell lines", "result": "decreased"},
      {"measurement": "expression of cyclin dependent kinase inhibitor p21", "setting": "RNF43 mutant cell lines; RNF43 mutant cell lines", "result": "increased"},
      {"measurement": "expression of β-catenin target gene AXIN2", "setting": "RNF43 mutant cell lines; RNF43 mutant cell lines", "result": "decreased"},
      {"measurement": "expression of differentiation marker MUC2, MUC5A/C", "setting": "RNF43 mutant cell lines; RNF43 mutant cells", "result": "induced"},
      {"measurement": "cytosolic β-catenin", "setting": "[2]", "result": "decreased"},
      {"measurement": "expression of MYC", "setting": "[2]", "result": "not"},
      {"measurement": "expression of cyclin dependent kinase inhibitor p21", "setting": "[2]", "result": "not"},
      {"measurement": "expression of β-catenin target gene AXIN2", "setting": "[2]", "result": "decreased"},
      {"measurement": "colony formation", "setting": "HPAFII cells; HPAFII (RNF43 mutant), 1 μM LGK974 alone", "result": "inhibited"},
      {"measurement": "colony formation", "setting": "HPAFII cells; HPAFII, 300 nM and 1 μM LGK974, crystal violet staining at day 14", "result": "inhibits colony formation"},
      {"measurement": "colony formation, inhibition with exogenous Wnt3a", "setting": "HPAFII cells; HPAFII, 1 μM LGK974 with daily addition of 10% Wnt3a conditioned media", "result": "partially rescued"},
      {"measurement": "colony formation", "setting": "PK1", "result": "no sensitivity"},
      {"measurement": "IC50", "setting": "Panc 03.27; Homo sapiens, PANC-03-27, Panc 03.27, 120 hours, Cell Titer Glo, read-out: LGK974 IC50s in cell line proliferation assay", "result": "> 2000", "unit": "nM"},
      {"measurement": "Inhibition fold change (1-Treated/Control)", "setting": "Panc 03.27; Panc03.27", "result": 0.06},
      {"measurement": "Inhibition fold change (1-Treated/Control)", "setting": "PSN-1", "result": 0.06},
      {"measurement": "IC50", "setting": "PSN-1; Homo sapiens, PSN1, 120 hours, Cell Titer Glo, read-out: LGK974 IC50s in cell line proliferation assay", "result": "> 2000", "unit": "nM"},
      {"measurement": "Inhibition fold change (1-Treated/Control)", "setting": "KP-3", "result": 0.02},
      {"measurement": "IC50", "setting": "KP-3; Homo sapiens, 120 hours, Cell Titer Glo, read-out: LGK974 IC50s in cell line proliferation assay", "result": "> 2000", "unit": "nM"},
      {"measurement": "Inhibition fold change (1-Treated/Control)", "setting": "SU8686", "result": 0.03},
      {"measurement": "IC50", "setting": "SU8686; Homo sapiens, SU.86.86, 120 hours, Cell Titer Glo, read-out: LGK974 IC50s in cell line proliferation assay", "result": "> 2000", "unit": "nM"},
      {"measurement": "Pathway inhibition", "setting": "TCC-PAN2", "result": "Yes"}
    ]}
  ]
}
